Measurements from publication PMC5725799, “Comparative binding properties of the tau PET tracers THK5117, THK5351, PBB3, and T807 in postmortem Alzheimer brains” (Alzheimer's Research & Therapy, 2017).
“And” between values parts separate entries of the source, which are not always exact repeats. Equal entries are not always repeated.

Tests used:
tau [1] = target: tau (Homo sapiens, UniProt P10636); assay: Competition binding assay with ^3H-THK5351 in postmortem hippocampus brain homogenates; conditions: vs ^3H-THK5351 1.5 nM, AD hippocampus homogenate; read-out: Ki2 (high-affinity site)
Chain of tau (Homo sapiens, UniProt P10636) (P10636 623-695 limits assumed): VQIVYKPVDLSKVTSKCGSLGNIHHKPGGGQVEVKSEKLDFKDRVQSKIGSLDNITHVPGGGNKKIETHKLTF
Procedure: (§1) Postmortem brain tissues from three patients with AD and three healthy control subjects were used for the in vitro binding assays. All the brain tissue, which came from the Netherlands Brain Bank, had been homogenized in PBS containing a protease/phosphatase inhibitor (see Table 1).
After 2-h incubation at room temperature, the binding assay was terminated by filtration through glass fiber filters presoaked for at least 3 h in 0.3% polyethylenimine. To do so, the filters were rinsed and filtered three times using cold binding buffer, and then the radiation on the filter was quantified using a Beckman Coulter scintillation counter. The data for the regional binding distribution studies were analyzed using Prism version 7.0 software for Mac (GraphPad Software Inc., La Jolla, CA, USA), and two-way analysis of variance with multiple comparisons was performed.

[2] = target: T1, monoamine oxidase B (MAO-B) (Homo sapiens, UniProt P27338); assay: Competition binding with ^3H-deprenyl in hippocampus and putamen brain homogenates (off-target binding); conditions: vs ^3H-deprenyl 10 nM, two AD cases
T1 construct: postmortem brain homogenates from the hippocampus and putamen (0.2 mg/ml tissue) of two patients with AD; tissue Netherlands Brain Bank; host or cells: postmortem human AD hippocampus and putamen homogenate
T1 sequence (P27338 1-520): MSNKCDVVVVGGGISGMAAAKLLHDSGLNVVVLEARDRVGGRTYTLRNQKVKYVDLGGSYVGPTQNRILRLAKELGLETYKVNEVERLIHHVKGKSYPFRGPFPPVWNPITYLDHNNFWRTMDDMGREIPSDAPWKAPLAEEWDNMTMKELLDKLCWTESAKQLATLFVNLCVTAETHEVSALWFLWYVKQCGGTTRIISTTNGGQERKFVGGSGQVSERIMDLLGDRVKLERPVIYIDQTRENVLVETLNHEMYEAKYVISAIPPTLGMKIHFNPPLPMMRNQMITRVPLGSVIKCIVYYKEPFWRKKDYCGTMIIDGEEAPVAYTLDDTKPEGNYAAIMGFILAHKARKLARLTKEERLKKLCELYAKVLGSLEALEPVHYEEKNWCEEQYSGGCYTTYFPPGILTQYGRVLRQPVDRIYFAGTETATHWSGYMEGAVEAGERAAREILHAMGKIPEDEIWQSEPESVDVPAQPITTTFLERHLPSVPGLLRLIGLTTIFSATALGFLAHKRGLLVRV
Procedure: Competition binding studies using postmortem brain homogenates from the hippocampus and putamen (0.2 mg/ml tissue) of two patients with AD were performed using ^3H-deprenyl (10 nM in Na-K phosphate buffer, pH 7.4) and increasing concentrations of unlabeled THK5117 (10^−14 to 10^−5 M) and T807 (10^−14 to 10^−5 M) to determine the off-target binding of the tau PET tracers. After 2-h incubation at room temperature, the binding assay was terminated by filtration through glass fiber filters presoaked for at least 3 h in 0.3% polyethylenimine. To do so, the filters were rinsed and filtered three times using cold binding buffer, and then the radiation on the filter was quantified using a Beckman Coulter scintillation counter. The data from all the binding studies were analyzed using Prism version 7.0 software.

MAO-B = tested on: MAO-B; set-up: method as in PMID 28374768; conditions: cited from earlier work
tau [3] = assay: ^3H-THK5117 and ^3H-THK5351 autoradiography of large frozen postmortem brain sections, total binding; set-up: species or system human; conditions: 3 nM tracer
Procedure: Postmortem frozen left brain hemispheres from three patients with AD were obtained from the Neuropathology of Dementia Laboratory (Indiana University School of Medicine, Indianapolis, IN, USA) and used for the autoradiography experiment. The frozen sections were allowed to reach room temperature, preincubated for 10 minutes with PBS + 0.1% BSA (pH 7.4), and then incubated for 1 h at room temperature with ^3H-THK5351 (3 nM) or ^3H-THK5117 (3 nM). The sections were rinsed three times in cold buffer for 5 minutes, followed by a quick dip in cold distilled water. Nonspecific binding was determined using 10 μM unlabeled THK5351 or 10 μM unlabeled THK5117. […]
For all the autoradiography studies, the regions of interest were drawn manually on the autoradiogram using multigauge software and were used for the semiquantitative analyses. Photostimulated luminescence per square millimeter (PSL/mm^2) was transformed to picomoles per cubic millimeter using a transformation factor that took into account the resolution of the image, the pixel value for the concentration of ligand, and the thickness of the sections: (PSL/mm^2 value)/([pixel value per pmol] × [(resolution/1000)^2] × [cryosection thickness]/1000).

tau [4] = assay: Regional binding distribution of ^3H-THK5117 and ^3H-THK5351 in brain homogenate; set-up: species or system human; conditions: temporal cortex homogenate, ^3H-THK5117 3 nM vs ^3H-THK5351 1.5 nM, p < 0.0001
Procedure: as §1
The regional binding distribution comparison between ^3H-THK5351 and ^3H-THK5117 was carried out in postmortem frontal and temporal cortical and hippocampal tissue from the brains of three patients with AD and three control subjects. The protocol was similar for ^3H-THK5351 (1.5 nM) and ^3H-THK5117 (3 nM): 0.1 mg of tissue in PBS + 0.1% bovine serum albumin (BSA) to a final volume of 500 μl, followed by incubation for 2 h at room temperature. The nonspecific binding was determined using 1 μM unlabeled THK5351 or unlabeled THK5117. After 2-h incubation at room temperature, the competition binding assay was stopped using filtration through glass fiber filters, and the radiation was then quantified using the scintillation counter.

Structure (SMILES) | Ki (tau [1]) | Ki ([2]; hippocampus homogenate) | Ki ([2]; putamen homogenate) | affinity between MAO-B and THK5117 (MAO-B) | Total Binding (tau [3]; AD1, Frontal cortex) | Total Binding (tau [3]; AD1, Temporal cortex) | extent of binding compared with ^3H-THK5351 (tau [4])
CNc1ccc(-c2ccc3cc(OCC(O)CF)ccc3n2)cc1 (stereo not shown) [THK5117] | 20 nM | 286 nM and > 200 nM | 148 nM and ~150 nM | around 300 nM |  |  | 
[3H]CNc1ccc(-c2ccc3cc(OCC(O)CF)ccc3n2)cc1 (stereo not shown) [^3H-THK5117, 1-Fluoro-3-((2-(4-([^3H]methylamino)phenyl)quinolin-6-yl)oxy)propan-2-ol] |  |  |  |  | 312 fmol/mg | 261 fmol/mg | more extensive binding of ^3H-THK5117 than of ^3H-THK5351
